Experimental data reported in paper PMC5460133 (Scientific Reports, 2017).

Legend:
Sb-PDE [1] = test system: T1, Sb-PDE; assay type: biochemical, Sphingobium sp. TCM1
T1 construct: native enzyme purified from Sphingobium sp; TCM1; signal peptide removed; mature 413 residues, N-terminus EFVTQSDQRPP (residues 29-39 of 441); homodimer, 116 kDa; zinc-containing; PHP superfamily

Sb-PDE [2] = test system: T1, Sb-PDE; assay type: biochemical, Sphingobium sp. TCM1; remark: listed apart in the source

O=[N+]([O-])c1ccc(OP(=O)(O)Oc2ccc([N+](=O)[O-])cc2)cc1 [BpNPP]
K i (Sb-PDE [1]): 12.5 ± 3.1 mM | Km (Sb-PDE [2]): 6.1 ± 1.2 mM

O=[N+]([O-])c1ccc(OP(=O)(O)O)cc1 [pNPP]
Km (Sb-PDE [2]): 1.5 ± 0.2 mM
